The numbers were not newly measured in patent publication US20240124437A1, “INJECTABLE LURASIDONE SUSPENSION AND PREPARATION METHOD THEREFOR” (Sichuan Kelun Pharmaceutical Research Institute Co., Ltd., priority 2021, published 2024), which cites them from elsewhere.

The conditions of the series: oral tablets.

Turning to `O=C1[C@@H]2[C@H]3CC[C@H](C3)[C@@H]2C(=O)N1C[C@@H]1CCCC[C@H]1CN1CCN(c2nsc3ccccc23)CC1` [lurasidone], the oral bioavailability was 9%-19%.
